The source of these data is patent publication US20030044399A1, “Method of treatment” (SmithKline Beecham Corporation, priority 1998, published 2003).

One experiment deals with Falcipain 2 (Plasmodium falciparum, UniProt Q8I6U4). As to the kind of experiment: Cysteine protease inhibition, progress curve method, falcipain. The experiment is classed as biochemical. Conditions: 10 uM Cbz-Leu-Arg-AMC, 100 mM Na acetate pH 5.5, 5 mM cysteine. The protocol: Standard assay conditions for the determination of kinetic constants used 10 uM fluorogenic peptide substrate, Cbz-Phe-Arg-AMC for the cysteine proteases from Leishmania spp and Schistosoma Mansoni, Cbz-Leu-Arg-AMC for the cysteine proteases from Plasmodium falciparum and Trypanosoma brucei rhodesiensi, and Ac-Lys-Glu-Lys-Leu-Arg-AMC (4 uM final substrate concentration) for the cysteine protease from Trypoanosoma cruzi, and were determined in 100 mM Na acetate at pH 5.5 containing 5 mM cysteine. Stock substrate solutions were prepared at concentrations of […] in DMSO with 10 uM (4 uM for Ac-Lys-Glu-Lys-Leu-Arg-AMC) final substrate concentration in the assays. The final DMSO concentration was 2% and the final volume was 100 uL. All assays were conducted at ambient temperature. Product progress curves were generated over 20 to 30 minutes following formation of AMC product.
Sequence of Falcipain 2 (Q8I6U4 244-484): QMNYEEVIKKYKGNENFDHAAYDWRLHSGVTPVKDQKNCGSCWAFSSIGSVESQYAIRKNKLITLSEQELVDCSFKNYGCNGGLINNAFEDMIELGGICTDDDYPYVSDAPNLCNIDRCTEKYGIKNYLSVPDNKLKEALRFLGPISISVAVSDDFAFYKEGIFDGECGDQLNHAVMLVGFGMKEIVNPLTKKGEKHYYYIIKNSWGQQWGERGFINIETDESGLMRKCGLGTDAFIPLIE
Potential inhibitors were evaluated using the progress curve method. Assays were carried out in the presence of variable concentrations of test compound. Reactions were initiated by addition of enzyme to buffered solutions of inhibitor and substrate. Data analysis was conducted according to one of two procedures depending on the appearance of the progress curves in the presence of inhibitors. For those compounds whose progress curves were linear, apparent inhibition constants (Ki,app) were calculated according to equation 1 (Brandt et al., Biochemitsry, 1989, 28, 140):
v=VmA/[Ka(1+I/Ki,app)+A] (1)
Where v is the velocity of the reaction with maximal velocity Vm, A is the concentration of substrate with Michaelis constant of Ka, and I is the concentration of inhibitor.
[AMC]=vsst+(v0−vss)[1−exp (−kobst)]/kobs (2)
Where [AMC] is the concentration of product formed over time t, v0 is the initial reaction velocity and vss is the final steady state rate. Values for kobs were then analyzed as a linear function of inhibitor concentration to generate an apparent second order rate constant (kobs/inhibitor concentration or kobs/[I]) describing the time-dependent inhibition. A complete discussion of this kinetic treatment has been fully described (Morrison et al., Adv. Enzymol. Relat. Areas Mol. Biol., 1988, 61, 201).
Exemplary inhibition data for the compounds used in the present method collected in accordance with the above-described procedure are listed in Table I.

For another experiment, the target named is Rhodazain (Trypanosoma brucei rhodesiense, UniProt Q95PM0). As to the kind of experiment: Cysteine protease inhibition, progress curve method, rhodazain. Format: biochemical, Trypanosoma brucei rhodesiensi. Conditions: Rhodazain Ki (nM), 10 uM Cbz-Leu-Arg-AMC, 100 mM Na acetate pH 5.5, 5 mM cysteine.
Sequence of Rhodazain (Q95PM0 entry or part of it): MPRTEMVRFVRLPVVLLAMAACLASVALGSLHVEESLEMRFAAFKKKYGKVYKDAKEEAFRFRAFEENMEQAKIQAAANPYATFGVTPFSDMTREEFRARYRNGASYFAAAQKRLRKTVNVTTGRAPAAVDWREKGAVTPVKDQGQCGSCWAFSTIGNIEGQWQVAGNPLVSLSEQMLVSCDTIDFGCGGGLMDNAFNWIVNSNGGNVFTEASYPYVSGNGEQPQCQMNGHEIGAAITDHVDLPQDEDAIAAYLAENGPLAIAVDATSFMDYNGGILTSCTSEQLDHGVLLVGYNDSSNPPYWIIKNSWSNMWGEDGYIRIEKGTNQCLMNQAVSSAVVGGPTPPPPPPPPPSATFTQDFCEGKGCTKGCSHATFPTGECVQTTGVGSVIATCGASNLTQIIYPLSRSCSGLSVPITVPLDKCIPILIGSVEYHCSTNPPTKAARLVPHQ
In another experiment the target is Cruzain (Trypanosoma cruzi, UniProt P25779). As to the kind of experiment: Cysteine protease inhibition, progress curve method, cruzain. The experiment is classed as biochemical. Conditions: 4 uM Ac-Lys-Glu-Lys-Leu-Arg-AMC, 100 mM Na acetate pH 5.5, 5 mM cysteine; read-out: Cruzain Ki. The gist of the method: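 Buffer was 100 mM sodium acetate pH 5.5 with 5 mM cysteine and 2% DMSO, at ambient temperature; reactions started with enzyme, and AMC formation was followed for 20–30 min. Substrates: Leishmania and Schistosoma, 10 uM Cbz-Phe-Arg-AMC; falcipain, 10 uM Cbz-Leu-Arg-AMC; cruzain, 4 uM Ac-Lys-Glu-Lys-Leu-Arg-AMC. Linear curves gave Ki,app; curved ones gave kobs/[I].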
Sequence of Cruzain (P25779 123-337): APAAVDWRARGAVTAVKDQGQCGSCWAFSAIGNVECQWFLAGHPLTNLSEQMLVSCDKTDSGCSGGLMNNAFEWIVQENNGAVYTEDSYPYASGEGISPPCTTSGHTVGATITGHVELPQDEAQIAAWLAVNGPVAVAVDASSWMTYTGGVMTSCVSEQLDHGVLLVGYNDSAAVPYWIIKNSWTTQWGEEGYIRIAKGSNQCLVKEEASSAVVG

The structures appear in SMILES notation.

One may read the Ki as a measure of affinity in units of concentration, obtained from inhibition or displacement. On to `CC(C)C[C@@H](NC(=O)c1ccc(-c2cccc(C(F)(F)F)c2)o1)C(=O)N[C@@H]1CCCN(S(=O)(=O)c2cccc[n+]2[O-])CC1=O` [Example 119, 5-(3-Trifluoromethyl-phenyl)-furan-2-carboxylic acid {(S)-3-methyl-1-[3-oxo-1-(1-oxy-pyridine-2-sulfonyl)-azepan-4-ylcarbamoyl]-butyl}amide], for which the Ki was 8.1 nM at Falcipain 2 and 5.1 nM on Rhodazain.
As to `CC(C)C[C@@H](NC(=O)c1ccc2[nH]ccc2c1)C(=O)NC1CCCN(S(=O)(=O)c2cccc[n+]2[O-])CC1=O` (single isomer, unassigned) [Example 64], the Ki turned out to be 6.2 nM on Falcipain 2, 4.1 nM on Cruzain and 2.7 nM on Rhodazain.
With `COc1cc2cc(C(=O)N[C@H](CC(C)C)C(=O)N[C@H]3CCCN(S(=O)(=O)c4ccccn4)CC3=O)sc2cc1OC` (single isomer, unassigned) [Example 165], the Ki is 2.5 nM on Falcipain 2, 5.5 nM on Cruzain and 2.1 nM on Rhodazain.
In the same order, the values of `COc1ccc2oc(C(=O)N[C@H](CC(C)C)C(=O)N[C@@H]3CCCN(S(=O)(=O)c4ncccc4C)CC3=O)cc2c1` (single isomer, unassigned) [Example 171] are 4.9 nM, 2.5 nM and 3.2 nM.
Regarding `COc1ccc2oc(C(=O)N[C@@H](CC(C)C)C(=O)N[C@H]3CCCN(S(=O)(=O)c4nccs4)CC3=O)cc2c1` [Example 124, 5-Methoxybenzofuran-2-carboxylic acid {(S)-3-methyl-1-[3-oxo-1-(thiazole-2-sulfonyl)-azepan-4-ylcarbamoyl]-buty}amide], the Ki at Falcipain 2 is 4.9 nM; at Cruzain it was 2 nM; on Rhodazain, 2.2 nM.
`CC(C)C[C@@H](NC(=O)c1cnc2ccccc2c1)C(=O)N[C@@H]1CCCN(S(=O)(=O)c2ccccn2)CC1=O` (single isomer, unassigned) [Example 156]: the values for the Ki at Falcipain 2, on Cruzain and on Rhodazain were 6.2 nM, 4.1 nM and 2.6 nM, respectively.
With `CC(C)C[C@@H](NC(=O)c1ccc2cc[nH]c2c1)C(=O)N[C@@H]1CCCN(S(=O)(=O)c2ccccn2)CC1=O` (stereo in doubt) [Example 58, 1H-Indole-6-carboxylic acid {(S)-3-methyl-1-[3-oxo-1-(pyridine-2-sulfonyl)-azepan-4-ylcarbamoyl]-butyl}amide], the Ki on Falcipain 2 came out at 7.1 nM; on Rhodazain it was 3.1 nM.
In the case of `COc1ccc2oc(C(=O)N[C@H](CC(C)C)C(=O)N[C@@H]3CCCN(S(=O)(=O)c4ncccc4C)CC3=O)cc2c1` (stereo in doubt) [Example 162, 5-Methoxy-benzofuran-2-carboxylic acid {(S)-3-methyl-1-[1-(3-methyl-pyridine-2-sulfonyl)-3-oxo-azepan-4-ylcarbamoyl]-butyl}amide], the Ki at Falcipain 2 was found to be 6.1 nM; at Cruzain it was 2.7 nM; at Rhodazain it was 2.5 nM.
On to `CC(C)C[C@@H](NC(=O)c1ccc2ncccc2c1)C(=O)N[C@@H]1CCCN(S(=O)(=O)c2ccccn2)CC1=O` (single isomer, unassigned) [Example 152], for which the Ki at Falcipain 2 came out at 3.1 nM; at Cruzain it was 2 nM; at Rhodazain it was 1.6 nM.
As for `CC(C)C[C@H](NC(=O)c1cc2ccccc2s1)C(=O)N[C@H]1CCCN(S(=O)(=O)c2nccs2)CC1=O` [Example 127, Benzo[b]thiophene-2-carboxylic acid {(S)-3-methyl-1-[3-oxo-1-(thiazole-2-sulfonyl)-azepan-4-ylcarbamoyl]-butyl}amide], the Ki at Falcipain 2 amounted to 8.1 nM; on Cruzain, 2.8 nM; on Rhodazain it was 4.7 nM.
In the case of `COc1cccc2cc(C(=O)N[C@@H](CC(C)C)C(=O)N[C@@H]3CCCN(S(=O)(=O)c4cccs4)CC3=O)oc12` [Example 144, 7-Methoxy-benzofuran-2-carboxylic acid-{(S)-3-methyl-1-[3-oxo-1-(thiophene-2-sulfonyl)-azepan-4-ylcarbamoyl]-butyl}-amide], the Ki at Falcipain 2 was 6.2 nM; on Cruzain, 5.5 nM; on Rhodazain it was 8.6 nM.
Regarding `CC(C)CC(NC(=O)c1ccc2c(c1)OCO2)C(=O)N[C@@H]1CCCN(S(=O)(=O)c2cccc[n+]2[O-])CC1=O` (single isomer, unassigned) [Example 76], the values for the inhibition constant Ki at Falcipain 2, at Cruzain and at Rhodazain were 7.8 nM, 14 nM and 5.4 nM, respectively.
With `CC(C)C[C@@H](NC(=O)c1ccc2ccccc2c1)C(=O)N[C@@H]1CCCN(S(=O)(=O)c2ccccn2)CC1=O` (single isomer, unassigned) [Example 155], the Ki at Falcipain 2 is 6.1 nM; at Cruzain, 4.1 nM; on Rhodazain, 3 nM.
With `[2H]C1(NC(=O)C(CC(C)C)NC(=O)c2cc3ccccc3o2)CCCN(S(=O)(=O)c2ccccn2)C([2H])([2H])C1=O` [Example 100, Benzofuran-2-carboxylic acid {(S)-3-methyl-1-[(2,2′,4-tridueterio)-3-oxo-1-(pyridine-2-sulfonyl)-azepan-4-ylcarbamoyl]-butyl}amide], the Ki at Falcipain 2 amounted to 6.4 nM; on Rhodazain, 2.5 nM.
Consider `COc1ccc2oc(C(=O)N[C@@H](CC(C)C)C(=O)N[C@H]3C[C@H](C)CN(S(=O)(=O)c4ccccn4)CC3=O)cc2c1` [Example 198, 5-Methoxy-benzofuran-2-carboxylic acid {(S)-3-methyl-1-[6-methyl-3-oxo-1-(pyridine-2-sulfonyll)-azepan-4-ylcarbamoyl]-butyl}-amide], for which the Ki on Falcipain 2 came to 3.6 nM; on Cruzain, 1.9 nM; on Rhodazain, 1.6 nM.
For the compound `COc1ccc2oc(C(=O)N[C@H](CC(C)C)C(=O)N[C@@H]3CCCN(S(=O)(=O)c4ccccn4)CC3=O)cc2c1` (single isomer, unassigned) [Example 69], the inhibition constant (Ki) came to 5.6 nM on Falcipain 2 and 2.2 nM at Rhodazain.
For the compound `CC(C)C[C@H](NC(=O)c1ccc(-c2cccc(C(F)(F)F)c2)o1)C(=O)N[C@@H]1CCCN(S(=O)(=O)c2ccccn2)CC1=O` [Example 66, 5-(3-Trifluoromethyl-phenyl)-furan-2-carboxylic acid {(S)-3-methyl-1-[3-oxo-1-(pyridine-2-sulfonyl)-azepan-4-ylcarbamoyl]-butyl}amide], the figures for the Ki on Falcipain 2 and at Rhodazain were 10 nM and 5.1 nM, respectively.
As to `CC(C)C[C@@H](NC(=O)c1cc2ccccc2s1)C(=O)N[C@@H]1CCCN(S(=O)(=O)c2cccc[n+]2[O-])CC1=O` [Example 46, Benzo[b]thiophene-2-carboxylic acid {(S)-3-methyl-1-[3-oxo-1-(1-oxy-pyridine-2-sulfonyl)-azepan-4-ylcarbamoyl]-butyl}amide], the Ki on Falcipain 2 amounted to 5.3 nM; at Cruzain it was 6.1 nM.
As for `Cc1oc(-c2ccccc2)nc1C(=O)N[C@H](CC(C)C)C(=O)NC1CCCN(S(=O)(=O)c2cccc[n+]2[O-])CC1=O` (stereo partly drawn) [Example 117, 5-Methyl-2-phenyl-oxazole-4-carboxylic acid {(S)-3-methyl-1-[3-oxo-1-(1-oxy-pyridine-2-sulfonyl)-azepan-4-ylcarbamoyl]-butyl}amide], the inhibition constant (Ki) at Falcipain 2 stood at 6.8 nM; at Cruzain it was 14 nM.
In turn, `COc1ccc(S(=O)(=O)N2CCC[C@@H](NC(=O)[C@H](CC(C)C)NC(=O)c3ccc(OC)c(OC)c3)C(=O)C2)cc1` [Example 107, 3,4-Dimethoxy-N—{(S)-1-[1-(4-methoxy-benzenesulfonyl)-3-oxo-azepan-4-ylcarbamoyl]-3-methyl-butyl}-benzamide] yielded a Ki on Falcipain 2 of 5.9 nM.
